Measured values: US10449223B2, “Use of dehydroeburicoic acid from Antrodia camphorata in the treatment or prevention of diabetes and hyperlipidemia” (priority 2016, dated 2019)

How the values were obtained:
[1] = test system: STZ-induced diabetic mice; experiment: Tissue weight, body weight and food intake in STZ-induced diabetic mice; assay type: in vivo, C57BL/6J mice; conditions: 28 days
[2] = test system: STZ-induced diabetic mice; experiment: Histology of epididymal WAT and liver tissue in STZ-induced diabetic mice; assay type: in vivo, C57BL/6J mice; conditions: 28 days
Description: Parts of EWAT and liver tissue specimens were investigated as previously described.^31,32 Microscopic images were taken using a microscope (Olympus BX51, BX51, Olympus, Tokyo, Japan).

[3] = test system: PPARγ; experiment: Western blotting: PPARγ in liver and adipose tissue of mice; conditions: STZ-induced diabetic mice; Metf 300 mg/kg/day oral, 28 days
Experimental: (§2) The study protocol was performed as previously described.^28 Diabetes was induced by intraperitoneal injection of streptozotocin (Sigma Chemical, St. Louis, Mo., USA) for 5 consecutive days. The dosage of STZ was 55 mg/kg (dissolved in 0.05 M cold sodium citrate buffer, pH 4.5). The normal control mice received only citrate buffer of the same volume.
(§3) During the experiment, all mice were fasted overnight, and blood was collected from the retro-orbital sinus. After dosing for 4 weeks, food was removed from the mice at night, and on the next day, the mice after 12 h of fasting were sacrificed. All of the individual tissues were collected and weighed, and parts of tissues were instantly frozen at −80° C. for later target gene analysis.
(§4) PPARα, PPARγ, and FAS proteins were performed by the liver and white adipose tissue of mice. Skeletal muscle from mice was subjected to GLUT4 expression level analysis, and the total membrane fractions were collected with buffer and determined using a described procedure. The protein contents of GLUT4, phospho-AMPK, and total AMPK were detected by Western blotting and determined as described.

[4] = test system: PPARα; experiment: Western blotting: PPARα in liver of mice; conditions: STZ-induced diabetic mice; Metf 300 mg/kg/day oral, 28 days
Experimental: as §2, §3, §4

[5] = test system: GLUT4; experiment: Western blotting: membrane GLUT4 in skeletal muscle of mice; conditions: STZ-induced diabetic mice; Metf 300 mg/kg/day oral, 28 days
Experimental: as §2, §3, §4

[6] = test system: SREBP1c; experiment: Semiquantitative RT-PCR, liver tissue: SREBP1c mRNA; assay type: in vivo, C57BL/6J mice; conditions: STZ-induced diabetic mice; Metf 300 mg/kg/day oral, 28 days; relative to CON group (so in the source)
Experimental: (§1) Total RNA from liver tissue was isolated with a Trizol Reagent (Molecular Research Center, Inc., Cincinnati, Ohio) according to the manufacturer's directions. The integrity of the extracted total RNA was examined by 2% agarose gel electrophoresis, and the RNA concentration was determined by the ultraviolet (UV) light absorbency at 260 nm and 280 nm (Spectrophotometer U-2800A, Hitachi). Total RNA (1 μg) was reverse transcribed to cDNA in a reaction mixture containing buffer, and 5 μL Moloney murine leukemia virus reverse transcriptase (Epicentre, Madison, Wis., USA). The polymerase chain reaction (PCR) was performed in a final 25 μL containing 1 U Blend Taq-Plus (TOYOBO, Japan), 1 μL of the RT first-strand cDNA product, 10 μM of each forward (F) and reverse (R) primer, 75 mM Tris-HCl (pH 8.3) containing 1 mg/L Tween 20, 2.5 mM dNTP, and 2 mM MgCl2. The products were run on 2% agarose gels and stained with ethidium bromide.

[7] = test system: FAS; experiment: Western blotting: FAS in liver and adipose tissue of mice; conditions: STZ-induced diabetic mice; Metf 300 mg/kg/day oral, 28 days
Experimental: as §2, §3, §4

[8] = test system: AMPK; experiment: Western blotting: phospho-AMPK (Thr172)/total AMPK in skeletal muscle and liver of mice; conditions: STZ-induced diabetic mice; Metf 300 mg/kg/day oral, 28 days
Experimental: as §2, §3, §4

[9] = test system: PEPCK; experiment: Semiquantitative RT-PCR, liver tissue: PEPCK mRNA; assay type: in vivo, C57BL/6J mice; conditions: STZ-induced diabetic mice; Metf 300 mg/kg/day oral, 28 days; relative to CON group (so in the source)
Experimental: as §1

[10] = test system: DGAT2; experiment: Semiquantitative RT-PCR, liver tissue: DGAT2 mRNA; assay type: in vivo, C57BL/6J mice; conditions: STZ-induced diabetic mice; Metf 300 mg/kg/day oral, 28 days; relative to CON group (so in the source)
Experimental: as §1

[11] = test system: G6 Pase; experiment: Semiquantitative RT-PCR, liver tissue: G6 Pase mRNA; assay type: in vivo, C57BL/6J mice; conditions: STZ-induced diabetic mice; Metf 300 mg/kg/day oral, 28 days; relative to CON group (so in the source)
Experimental: as §1

[12] = test system: PPARα; experiment: Semiquantitative RT-PCR, liver tissue: PPARα mRNA; assay type: in vivo, C57BL/6J mice; conditions: STZ-induced diabetic mice; Metf 300 mg/kg/day oral, 28 days
Experimental: as §1

With `CC(C)OC(=O)C(C)(C)Oc1ccc(C(=O)c2ccc(Cl)cc2)cc1` [Feno, fenofibrate, reference compound] the “Tissue weight: BAT” value ([1]; Feno 250 mg/kg/day oral) was 0.319 ± 0.030 wt %, the “Tissue weight: EWAT” value ([1]; Feno 250 mg/kg/day oral) was 0.743 ± 0.059 wt % and the “Tissue weight: MWAT” value ([1]; Feno 250 mg/kg/day oral) was 0.795 ± 0.070 wt %. The “Tissue weight: RWAT” value ([1]; Feno 250 mg/kg/day oral) was 0.154 ± 0.016 wt %, the “Tissue weight: Visceral fat” value ([1]; Feno 250 mg/kg/day oral) was 0.889 ± 0.075 wt % and the “average area of adipocytes in epididymal WAT” value ([2]; Feno 250 mg/kg/day oral) was 5373.8±194.6 μm^2.
For `CN(C)C(=N)N=C(N)N` [Metf, metformin, reference compound], the “Tissue weight: EWAT” value ([1]; Metf 300 mg/kg/day oral) was 0.956 ± 0.047 wt %, the “Tissue weight: RWAT” value ([1]; Metf 300 mg/kg/day oral) was 0.176 ± 0.023 wt % and the “Tissue weight: Visceral fat” value ([1]; Metf 300 mg/kg/day oral) was 1.132 ± 0.054 wt %. For the same compound, the “expression levels of PPARγ in adipose tissue” value [3] was “decreased”, the “expression levels of PPARγ in the liver” value [3] was “decreased” and the “expression levels of PPARα in the liver” value [4] was “increased”. For the same compound, the “membrane expression levels of GLUT4 in skeletal muscle vs STZ group” value [5] was “greater”, the “average area of adipocytes in epididymal WAT” value ([2]; Metf 300 mg/kg/day oral) was 5308.9±204.7 μm^2 and the “ballooning of hepatocyte (liver histology)” value ([2]; Metf 300 mg/kg/day oral) was “no ballooning phenomenon”. The “mRNA levels of SREBP1c in liver” value [6] was “decreased”, the “expression levels of FAS in adipose tissue” value [7] was “decreased” and the “expression levels of FAS in the liver” value [7] was “decreased”. The “muscular expression levels of phospho-AMPK/total AMPK compared with the STZ group (second sentence)” value [8] was “increased”, the “mRNA levels of PEPCK in liver” value [9] was “decreased” and the “mRNA levels of DGAT2 in liver” value [10] was “decreased”. The “mRNA levels of G6 Pase in liver” value [11] was “decreased” and the “mRNA level of PPARα in liver” value [12] was “increased”.
